The target in test [1] is beta-amyloid 1-40 monomers (Homo sapiens, UniProt P05067). As to the kind of experiment: Ex vivo fluorescent binding assay, monomers on naive rat brain sections. The following applies: data not shown. On the procedure: (§1) Fresh-frozen tissue sections of Sprauge-Dawley naïve rat brain (Taconic) 10 microns in thickness were fixed with 10% formalin in PBS. Each section of the rat brain was then embedded in paraffin, an optional step that increases the shelf life of the sample. Pre-formed soluble oligomers (100 μM), fibrils (100 μM), or monomers were applied onto tissues, and the slides incubated in a humidified chamber for two hours at 37° C. The slides were washed with PBS three times, then incubated with blocking buffer consisting of 10% normal goat serum in 3% BSA in PBS. To verify the presence of beta-amyloid, 100 μL of a 1/250th dilution of anti-beta-amyloid antibody, 6E10 (Signet Laboratories) was applied onto the tissues. The slides were incubated for 1.5 hours at room temperature or for 45 mins at 37° C. 1 mM stock solutions of 49b and Thioflavin T were prepared in 50% ethanol. The probes were diluted to 50 μM in blocking buffer. […] Microscopic examination and imaging was performed using a Leica wide-field fluorescence microscope using filter cube A (band pass 340-380 nm with a 400 nm dichroic mirror and a long pass 400 nm suppression filter) for 49b, cube E4 (band pass 436 nm with 455 dichroic mirror and a long pass 470 nm suppression filter) for Thioflavin T, and TX2 (band pass 520-600 nm with 595 nm dichroic mirror and 645/75 band pass suppression filter) for 6E10 immunostaining.
Chain of beta-amyloid 1-40 monomers (P05067 672-711 limits assumed): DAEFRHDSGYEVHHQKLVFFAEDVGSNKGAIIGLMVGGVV

In test [2] the target is beta-amyloid 1-42 monomers (Homo sapiens, UniProt P05067). The test is described as above. The note with it: data not shown. On the procedure:
as §1

Chain of beta-amyloid 1-42 monomers (P05067 672-713 limits assumed): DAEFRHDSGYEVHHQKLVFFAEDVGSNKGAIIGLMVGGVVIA

Turning to `O=Cc1ccc(-c2oc3ccccc3c2CO)o1` [Compound 49b, 2-(2-formyl-5-furanyl)-3-hydroxymethyl benzofuran], the “staining of beta-amyloid 1-40 monomers” value in test [1] is on record as “did not stain”. In addition, in test [2], the “staining of beta-amyloid 1-42 monomers” value is reported as “did not stain”.

These data come from US7727511B2, “Agents for imaging soluble a-beta” (priority 2003, dated 2010).
